Data as given in a melting point compilation (Tetko et al.; mined from patent text by program, amines drawn as free bases though some values may be those of a salt).

With Nc1c(F)c(N2CCNCC2)c(F)c2c1c(=O)c(C(=O)O)cn2C1CC1 as the molecule, how does the melting point read?
The melting point was 257 to 259 °C.

With CNc1ccc([N+](=O)[O-])cc1C(F)(F)F as the molecule, how does the melting point read?
Its melting point is 99 to 101 °C.

For C=CC(O)(c1ccc(Cl)cc1)c1cccnc1 (stereo unspecified), which melting point is on record?
Its melting point is 82.5 to 84 °C.

Which melting point does the source give for O=C(Nc1nc(Cc2ccccc2)c(C(=O)c2sc(NC(=O)Oc3ccccc3)nc2Cc2ccccc2)s1)Oc1ccccc1 here?
The melting point was over 285 °C.

With CCc1ccc(Nc2nnc(Cc3ccnc(OC)c3)c3ccccc23)cc1Br as the molecule, how does the melting point read?
Its melting point is 133 to 135 °C.

For C[C@@H](n1cnc2cc(-c3ccc(C#N)cc3)sc2c1=O)[C@](O)(Cn1cncn1)c1ccc(F)cc1F, which melting point is on record?
The melting point was 231 to 232 °C.

For O=C(CCl)CCCc1ccc(CCCC(=O)CCl)cc1, which melting point is on record?
The melting point was 70 to 71 °C.

For COC(=O)c1cccc(-c2ncc(O)cn2)c1, which melting point is on record?
Its melting point is 219 to 223 °C.

Which melting point does the source give for O=C(CBr)C(O)(c1ccccc1)C1CCC1 (stereo unspecified) here?
The melting point was 79 to 80 °C.

With NC1=CN(Cc2ccc(Cl)cc2Cl)CN=C1 as the molecule, how does the melting point read?
The melting point was 104 to 105 °C.

Which melting point does the source give for CS(=O)(=O)Nc1cccc(Nc2nc(Oc3ccc(F)cc3)c3nc[nH]c3n2)c1 here?
The melting point was 136 to 139 °C.

For COC(=O)c1ccc(COc2ccc(-c3cc(O)c(SCCc4ccccc4)c(=O)o3)cc2)cc1, which melting point is on record?
Its melting point is 157 to 158 °C.

With CC(C(=O)O)c1ccc2nc(-c3ccccc3)ccc2c1 (stereo unspecified) as the molecule, how does the melting point read?
The melting point was 161 to 162 °C.

For COc1cccc(Nc2nc(-n3nc(C)cc3C)nc3ccccc23)c1, which melting point is on record?
The melting point was 193 to 195 °C.

With Nc1ccc(NC(=O)c2ccc(CNC(=O)OCc3cccnc3)cc2)cc1 as the molecule, how does the melting point read?
The melting point was 204 to 205 °C.

With Cc1ccc(Nc2nnc(-c3cccc(OCc4ccccc4)c3)s2)cc1Cl as the molecule, how does the melting point read?
The melting point was 211 to 212 °C.

For O=C(CNC(=O)OCc1ccccc1)Nc1ccccc1C(=O)c1cccs1, which melting point is on record?
Its melting point is 115 to 116 °C.

For CCOC(=O)c1cn(C2CC2)c2c(F)c(F)c(F)cc2c1=O, which melting point is on record?
Its melting point is 167 to 168 °C.

For CCc1cc2c(SCc3ccccc3)ncnc2s1, which melting point is on record?
The melting point was 54 to 60 °C.

With Cc1cccc(C(=O)O)c1OCc1ccc(C(F)(F)F)cc1 as the molecule, how does the melting point read?
Its melting point is 104 to 106 °C.

For O=C(Oc1ccc(CCN(F)F)cc1)c1ccccc1, which melting point is on record?
Its melting point is 67 to 67.5 °C.

For O=C(NCCCc1ccncc1)N(CCCC12CC3CC(CC(C3)C1)C2)CC(F)(F)F, which melting point is on record?
Its melting point is 88.9 to 90 °C.

Which melting point does the source give for NC(C(=O)OC1CCCCC1)C(=O)OC1CCCCC1 here?
Its melting point is 46 to 47 °C.

For O=C(NCCCl)Oc1ccccc1, which melting point is on record?
The melting point was 65 to 67 °C.

Which melting point does the source give for COc1ccc(-c2noc(CC(=O)O)c2-c2ccc(OC)cc2)cc1 here?
The melting point was 142 to 143 °C.

Which melting point does the source give for O=C(O)c1cc(-c2ccccc2)cc2c(-c3ccccc3)c(Br)oc12 here?
Its melting point is 232 to 236 °C.

With Cc1noc(C)c1C(=O)Nc1ccc(-n2nc(C(F)(F)F)cc2C2CC2)c(F)c1 as the molecule, how does the melting point read?
Its melting point is 163 to 165 °C.

Which melting point does the source give for CC(=O)NCC1CC1c1cccc2nc(C)nn12 (stereo unspecified) here?
Its melting point is 124 to 126 °C.

For Cc1nc2c(-c3cccc(N4CCN(CCO)CC4)c3)cnn2c(N)c1-c1ccc(F)c(Cl)c1, which melting point is on record?
The melting point was 104 to 107 °C.

For O=C1Nc2ccccc2C12COc1ccc(F)cc12 (stereo unspecified), which melting point is on record?
The melting point was 224 to 226 °C.

For CC(=O)C1CCC2C3CCC4CC(C)(O)CCC4(C)C3CCC12C (stereo unspecified), which melting point is on record?
The melting point was 103 °C.

Which melting point does the source give for Cc1c(-c2ccccc2)c(N2CC[C@H](N(C)C)C2)c2oc(N3CC(CC(=O)O)C3)nc2c1C#N here?
The melting point was 125 to 128 °C.

Which melting point does the source give for COc1cc2c(-c3ccnc(NN)c3)c(CO)c(CO)cc2cc1OCc1ccccc1 here?
Its melting point is 155 to 157 °C.

Which melting point does the source give for O=C1OC(CCCN2CCN(c3ccccn3)CC2)CN1c1ccccc1 (stereo unspecified) here?
The melting point was 123 to 125 °C.

For CCOC(=O)C(=O)c1ccc2c(c1)CCCO2, which melting point is on record?
Its melting point is 119 to 121 °C.

Which melting point does the source give for CC(C)c1ccc2c(c1)c(=O)[nH]c1c2c2ccccc2n1C here?
Its melting point is 315 to 325 °C.

For O=C(NCc1ccccc1)c1cc2c(-c3ccccc3)n[nH]c2s1, which melting point is on record?
The melting point was 98 to 101 °C.

Which melting point does the source give for CCCCCCCC(=O)N(C)Cc1cccc(-c2ccc(CCC(=O)O)s2)c1 here?
The melting point was 67 to 68 °C.

With FC(F)(F)Oc1cccc(CN2CCC(Nc3nnc(C(F)(F)F)s3)CC2)c1 as the molecule, how does the melting point read?
The melting point was 116 °C.

Which melting point does the source give for CCOC(=O)CC(=O)c1cc(Cl)ccc1O here?
Its melting point is 71.8 to 73.1 °C.

Which melting point does the source give for CCOC(=O)C1(C(=O)NCc2ccccc2)CC(=O)N(Cc2ccccc2)C1 (stereo unspecified) here?
The melting point was 63 to 65 °C.

With O=C1CC(c2ccccc2)c2ccccc2CN1 (stereo unspecified) as the molecule, how does the melting point read?
Its melting point is 180 to 181 °C.

For COc1ccc(CC2C(=O)N(Cc3ccccc3)c3ccccc3N=C2C)cc1 (stereo unspecified), which melting point is on record?
The melting point was 136 to 137 °C.

Which melting point does the source give for CC(C)C[C@H](NC(=O)c1cccs1)C(=O)N[C@@H](C(C)C)[C@@H](O)c1c(-c2ccccc2)c1=O here?
The melting point was 171 to 172 °C.

For COc1nccc2c(=O)n(C)c(-c3ccc(OC4CCN(C5CCC5)CC4)cc3)nc12, which melting point is on record?
The melting point was 178 to 180 °C.

Which melting point does the source give for O=C1c2ccccc2N(Cc2cccs2)C2=NCCN12 here?
The melting point was 124 to 127 °C.

With CCCCNCCC(=O)Nc1ccc2c(c1)C(=O)c1cc(NC(=O)CCNCCCC)ccc1C2=O as the molecule, how does the melting point read?
Its melting point is 168 °C.

Which melting point does the source give for CN(C)C(=O)c1ccccc1OCC(=O)NC(C)(C)c1ccc(Cl)cc1 here?
Its melting point is 127 to 129 °C.

For Clc1nc2c(-c3ccccc3)cccc2o1, which melting point is on record?
Its melting point is 85.8 °C.

With CCOC(=O)C(=O)CC(=O)N1CCOCC1 as the molecule, how does the melting point read?
Its melting point is 60 °C.

Which melting point does the source give for CC(=O)CCc1ccc(-c2ccccc2)cc1 here?
The melting point was 76 to 77 °C.

With CCCCNS(=O)(=O)c1cccc(NC(=O)NS(=O)(=O)c2ccc(C)cc2)c1 as the molecule, how does the melting point read?
Its melting point is 153 °C.

For CN1CCN(C(=O)OC2c3ccccc3C(=O)N2c2ccc3cccnc3n2)CC1 (stereo unspecified), which melting point is on record?
The melting point was 183 °C.

For CS(=O)(=O)c1ccc(-c2ccc3cnc(Nc4ccc(N5CCOCC5)nc4)nn23)cc1, which melting point is on record?
Its melting point is 171 to 177 °C.

With O=c1c2c(Cl)cccc2nc(C(S)c2ncnc3[nH]cnc23)n1-c1ccccc1F (stereo unspecified) as the molecule, how does the melting point read?
Its melting point is 244 °C.

Which melting point does the source give for O=C(O)Cc1c(-c2cccs2)nn(-c2ccccc2)c1-c1cccs1 here?
The melting point was 216 to 218 °C.

With O=S(=O)(c1ccc(Cl)cc1)N1CCCC1c1ccc(F)c(F)c1 (racemic) as the molecule, how does the melting point read?
The melting point was 121 °C.

With O=C(Nc1ccccc1C(c1ccc(O)cc1)c1ccc(O)cc1)c1cccs1 as the molecule, how does the melting point read?
The melting point was 240 to 243 °C.

With COc1cc(OCC(=O)O)c(C)cc1SCc1ccc(-c2cccc(OC(F)(F)F)c2)cc1 as the molecule, how does the melting point read?
Its melting point is 137 °C.

For [N-]=[N+]=NC1=C([C@H]2CC[C@H](c3ccc(Cl)cc3)CC2)C(=O)c2ccccc2C1=O, which melting point is on record?
The melting point was 130 to 135 °C.

For CCCc1cc(-c2noc3cc(OC)ccc23)ccc1OC, which melting point is on record?
The melting point was 70 to 72 °C.

Which melting point does the source give for Cc1cc(C(=O)Nc2cnccc2C)c2c(C)nn(-c3ccccc3)c2n1 here?
The melting point was 227 to 228 °C.

Which melting point does the source give for CCCOc1ccc(Cl)c2c(=O)c3ccccc3sc12 here?
Its melting point is 102 to 103 °C.

Which melting point does the source give for O=c1nc(NCCCn2ccnc2)n2c3c1cnn3C(c1cccc(F)c1)=CC2 here?
Its melting point is 256 to 258 °C.

Which melting point does the source give for NC(=O)c1ccccc1N1CCN(Cc2cn3cc(Cl)ccc3n2)CC1 here?
Its melting point is 178 to 179 °C.

With O=C(O)c1cc(Br)cc2c1NCCC2C(=O)O (stereo unspecified) as the molecule, how does the melting point read?
Its melting point is 238 to 239 °C.

Which melting point does the source give for Cc1ccc(-c2[nH]c(C)nc2C(=O)Nc2nccs2)cc1 here?
Its melting point is 275 to 276 °C.

For Cc1oc(-c2ccccc2)nc1COc1cccc(COc2cccc(CC(=O)O)c2)n1, which melting point is on record?
The melting point was 97 to 98 °C.

With CC(C)Nc1cccnc1N1CCN(C(=O)c2ccc(C(=O)N[C@H](C)CO)cn2)CC1 as the molecule, how does the melting point read?
Its melting point is 129 to 130 °C.

With C=Cc1ccc2c(c1)C[C@H](C(=O)N1CCC[C@H](C)C1)N2c1cccnn1 as the molecule, how does the melting point read?
Its melting point is 206 to 209 °C.

With CC(C)COC1OC(CO)C(O)C(O)C1(O)N(C(=O)N(CCCl)N=O)C(C)C (stereo unspecified) as the molecule, how does the melting point read?
Its melting point is 83 to 85 °C.
